Columns and labels:
[1] = test system: Hepatitis C virus subtype 1a; assay: Inhibition of NS5A in HCV genotype 1a assessed as reduction in replicon RNA level after 3 days by cell based RT-PCR method
[2] = test system: Nonstructural protein 5A (Hepatitis C virus), Q5L478 [UNDEFINED MUTATION]; assay: Inhibition of NS5A L31V mutant in HCV genotype 1a assessed as reduction in replicon RNA level after 3 days by cell based RT-PCR method; settings: Hepatitis C virus subtype 1a
[3] = test system: T1, Nonstructural protein 5A (Hepatitis C virus), Q5L478 [Y93H]; assay: Inhibition of NS5A Y93H mutant in HCV genotype 1a assessed as reduction in replicon RNA level after 3 days by cell based RT-PCR method; settings: Hepatitis C virus subtype 1a
T1 sequence (whole entry): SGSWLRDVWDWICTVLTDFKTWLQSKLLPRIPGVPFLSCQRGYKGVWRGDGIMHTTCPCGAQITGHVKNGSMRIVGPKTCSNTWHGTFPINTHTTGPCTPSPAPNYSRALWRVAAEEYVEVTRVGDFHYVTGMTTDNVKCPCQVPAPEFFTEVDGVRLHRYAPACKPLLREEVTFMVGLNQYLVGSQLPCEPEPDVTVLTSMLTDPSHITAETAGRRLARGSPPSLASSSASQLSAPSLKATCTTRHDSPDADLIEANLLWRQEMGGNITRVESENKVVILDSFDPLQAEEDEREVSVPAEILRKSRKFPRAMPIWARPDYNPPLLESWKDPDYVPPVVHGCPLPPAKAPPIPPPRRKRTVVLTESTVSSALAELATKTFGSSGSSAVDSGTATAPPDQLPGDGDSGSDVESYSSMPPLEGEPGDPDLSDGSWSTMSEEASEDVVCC

[4] = test system: Hepatitis C virus subtype 2b; assay: Inhibition of NS5A in HCV genotype 2b assessed as reduction in replicon RNA level after 3 days by cell based RT-PCR method
[5] = test system: Hepatitis C virus subtype 1a; assay: Selectivity ratio of EC90 for NS5A L31V mutant in HCV genotype 1a to EC90 for NS5A in HCV genotype 1a
[6] = test system: Hepatitis C virus subtype 1a; assay: Selectivity ratio of EC90 for NS5A Y93H mutant in HCV genotype 1a to EC90 for NS5A in HCV genotype 1a
[7] = Selectivity ratio of EC90 for NS5A in HCV genotype 2b to EC90 for NS5A in HCV genotype 1a
[8] = Half life in rat at 2 mg/kg, iv; assay type: ADME, organism-based; settings: in vivo
[9] = Clearance in rat at 2 mg/kg, iv; assay type: ADME, organism-based; settings: in vivo
[10] = AUC in rat at 10 mg/kg, po; assay type: ADME, organism-based; settings: in vivo
[11] = Cmax in rat at 10 mg/kg, po; assay type: ADME, organism-based; parameters: dose 10 mg/kg, route oral; settings: in vivo
[12] = Oral bioavailability in rat at 10 mg/kg; assay type: ADME, organism-based; settings: in vivo
[13] = test system: Hepatitis C virus subtype 3a; assay: Inhibition of NS5A in HCV genotype 3a assessed as reduction in replicon RNA level after 3 days by cell based RT-PCR method

SMILES: COC(=O)N[C@H](C(=O)N1CCC[C@H]1c1ncc(-c2ccc3c(c2)OC(c2cccc(OC)c2)n2c-3cc3cc(-c4cnc([C@@H]5C[C@H]6C[C@H]6N5C(=O)[C@@H](NC(=O)OC)C(C)C)[nH]4)ccc32)[nH]1)C(C)C (stereo partly drawn)
- EC90 [1]: 13 pM
- EC90 [2]: 130 pM
- EC90 [3]: 6450 pM
- EC90 [4]: 4660 pM
- Selectivity ratio [5]: 10
- Selectivity ratio [6]: 500
- Selectivity ratio [7]: 360
- half-life [8]: 4.7 h
- clearance [9]: 6 mL/min/kg
- AUC [10]: 3.64 µM·h
- Cmax [11]: 630 nM
- bioavailability [12]: 13%

SMILES: COC(=O)N[C@H](C(=O)N1CCC[C@H]1c1ncc(-c2cc(F)c3c(c2)OC(c2ccccc2)n2c-3cc3cc(-c4cnc([C@@H]5C[C@H]6C[C@H]6N5C(=O)[C@@H](NC(=O)OC)C(C)C)[nH]4)ccc32)[nH]1)C(C)C (stereo partly drawn)
- EC90 [1]: 16 pM
- EC90 [2]: 420 pM
- EC90 [3]: 3170 pM
- EC90 [4]: 16300 pM
- Selectivity ratio [5]: 26
- Selectivity ratio [6]: 200
- Selectivity ratio [7]: 1000

SMILES: COC(=O)N[C@H](C(=O)N1CCC[C@H]1c1ncc(-c2cc(F)c3c(c2)OC(c2cccc(OC)c2)n2c-3cc3cc(-c4cnc([C@@H]5CCCN5C(=O)[C@@H](NC(=O)OC)C(C)C)[nH]4)ccc32)[nH]1)C(C)C (stereo partly drawn)
- EC90 [1]: 10 pM
- EC90 [4]: 5720 pM
- EC90 [13]: 70 pM
- Selectivity ratio [5]: 20
- Selectivity ratio [6]: 230
- Selectivity ratio [7]: 570

SMILES: COC(=O)N[C@H](C(=O)N1CCC[C@H]1c1ncc(-c2ccc3c(c2)cc2n3C(c3cccc(OC)c3)Oc3cc(-c4cnc([C@@H]5C[C@@H](F)CN5C(=O)[C@@H](NC(=O)OC)C(C)C)[nH]4)ccc3-2)[nH]1)C(C)C (stereo partly drawn)
- EC90 [1]: < 20 pM
- EC90 [2]: 810 pM
- EC90 [3]: 19800 pM
- EC90 [4]: 60800 pM
- Selectivity ratio [5]: > 41
- Selectivity ratio [6]: > 990
- Selectivity ratio [7]: > 3040

SMILES: COC(=O)N[C@H](C(=O)N1CCC[C@H]1c1ncc(-c2ccc3c(c2)cc2n3C(c3ccccc3)Oc3cc(-c4cnc([C@@H]5C[C@@H](F)CN5C(=O)[C@@H](NC(=O)OC)C(C)C)[nH]4)cc(F)c3-2)[nH]1)C(C)C (stereo partly drawn)
- EC90 [1]: 6 pM
- EC90 [2]: 2170 pM
- EC90 [3]: 1400 pM
- EC90 [4]: 63600 pM
- Selectivity ratio [5]: 362
- Selectivity ratio [6]: 233
- Selectivity ratio [7]: 10600

SMILES: COC(=O)N[C@H](C(=O)N1CCC[C@H]1c1ncc(-c2cc(F)c3c(c2)OC(c2ccc4c(c2)OCCC4)n2c-3cc3cc(-c4cnc([C@@H]5CCCN5C(=O)[C@@H](NC(=O)OC)C(C)C)[nH]4)ccc32)[nH]1)C(C)C (stereo partly drawn)
- EC90 [1]: 3 pM
- EC90 [2]: 2.5 pM
- EC90 [3]: 480 pM
- EC90 [4]: 310 pM
- Selectivity ratio [5]: 1
- Selectivity ratio [6]: 160
- Selectivity ratio [7]: 103

SMILES: COC(=O)N[C@H](C(=O)N1CCC[C@H]1c1ncc(-c2cc(F)c3c(c2)OC(c2ccc4c(c2)OCCC4)n2c-3cc3cc(-c4cnc([C@@H]5C[C@H]6C[C@H]6N5C(=O)[C@@H](NC(=O)OC)C(C)C)[nH]4)ccc32)[nH]1)C(C)C (stereo partly drawn)
- EC90 [1]: 4 pM
- EC90 [2]: 7 pM
- EC90 [3]: 120 pM
- EC90 [4]: 380 pM
- Selectivity ratio [5]: 2
- Selectivity ratio [6]: 30
- Selectivity ratio [7]: 95
- half-life [8]: 4.6 h
- clearance [9]: 11.4 mL/min/kg
- AUC [10]: 0.63 µM·h
- Cmax [11]: 73 nM
- bioavailability [12]: 4%

From ChEMBL document CHEMBL3853354, “Structure-activity relationships of proline modifications around the tetracyclic-indole class of NS5A inhibitors” (Bioorg Med Chem Lett, 2016)
